Assay results from patent US20170121315A1, “HETEROBICYCLICALLY SUBSTITUTED 4-OXOBUTANE ACID DERIVATIVES AND USE THEREOF” (priority 2014, published 2017).
pIC50: −log10 of the molar value.

How the values were obtained:
Type in all cases: biochemical
MMP-3 = target: T1, MMP-3 (Homo sapiens, UniProt P08254); assay: In vitro MMP-3 inhibition test; conditions: human MMP-3
T1 construct: purchased R&D Systems 513-MP
Source text: (§1) The MMP-mediated amidolytic cleavage of a suitable peptide substrate leads to an increase in fluorescent light here too. The signal intensity of the fluorescent light is directly proportional to the enzyme activity. The active concentration of a test compound at which half the enzyme is inhibited (50% signal intensity of the fluorescent light) is reported as the IC50 value.
(§2) Recombinant MMP-3 (R&D Systems, 513-MP) is chemically activated in accordance with the manufacturer's instructions using APMA. 1 μl of the test compound to be analysed (as a solution in DMSO, suitable concentrations e.g. 1 nM to 30 μM) is pipetted into 24 μl of activated enzyme (final concentration e.g. 2 nM) in reaction buffer (50 mM Tris/HCl pH 7.5, 10 mM CaCl2, 150 mM NaCl, 0.05% Brij®-35) in a white 384-hole microtiter plate (MTP). The enzymatic reaction is started by adding the intramolecularly quenched Mca-Arg-Pro-Lys-Pro-Val-Glu-Nval-Trp-Arg-Lys(Dnp)-NH2 substrate (final concentration e.g. 10 μM; R&D Systems, ES-002), so as to result in a total test volume of 50 μl. The course of the MMP-3 reaction is measured by measuring the fluorescence intensity (excitation 320 nm, emission 410 nm) over a suitable period of time (e.g. over 120 min at a temperature of 32° C.).

MMP-1 = target: T2, MMP-1 (Homo sapiens, UniProt P03956); assay: In vitro MMP-1 inhibition test; conditions: human MMP-1
T2 construct: purchased R&D Systems 901-MP
T2 sequence (P03956 100-469): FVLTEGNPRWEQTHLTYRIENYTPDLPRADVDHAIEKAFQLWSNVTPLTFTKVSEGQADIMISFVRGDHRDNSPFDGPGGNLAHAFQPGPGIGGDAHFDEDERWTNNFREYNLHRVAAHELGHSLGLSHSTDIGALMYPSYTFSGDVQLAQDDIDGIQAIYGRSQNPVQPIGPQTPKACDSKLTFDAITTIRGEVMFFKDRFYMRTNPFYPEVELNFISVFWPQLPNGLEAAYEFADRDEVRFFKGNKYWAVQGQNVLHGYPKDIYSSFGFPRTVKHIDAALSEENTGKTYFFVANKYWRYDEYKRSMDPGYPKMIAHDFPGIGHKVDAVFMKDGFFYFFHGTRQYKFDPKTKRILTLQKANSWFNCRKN
Source text: as §1
as §2, with “MMP-1” for “MMP-3”, “901-MP)” for “513-MP)”, “Mca-Pro-Leu-Gly-Leu-Dpa(Dnp)-Ala-Arg-NH2” for “Mca-Arg-Pro-Lys-Pro-Val-Glu-Nval-Trp-Arg-Lys(Dnp)-NH2”, “ES-001),” for “ES-002),”

MMP-16 = target: T3, MMP-16 (Homo sapiens, UniProt P51512); assay: In vitro MMP-16 inhibition test; conditions: human MMP-16
T3 construct: purchased R&D Systems 1785-MP
T3 sequence (P51512 120-564 limits assumed): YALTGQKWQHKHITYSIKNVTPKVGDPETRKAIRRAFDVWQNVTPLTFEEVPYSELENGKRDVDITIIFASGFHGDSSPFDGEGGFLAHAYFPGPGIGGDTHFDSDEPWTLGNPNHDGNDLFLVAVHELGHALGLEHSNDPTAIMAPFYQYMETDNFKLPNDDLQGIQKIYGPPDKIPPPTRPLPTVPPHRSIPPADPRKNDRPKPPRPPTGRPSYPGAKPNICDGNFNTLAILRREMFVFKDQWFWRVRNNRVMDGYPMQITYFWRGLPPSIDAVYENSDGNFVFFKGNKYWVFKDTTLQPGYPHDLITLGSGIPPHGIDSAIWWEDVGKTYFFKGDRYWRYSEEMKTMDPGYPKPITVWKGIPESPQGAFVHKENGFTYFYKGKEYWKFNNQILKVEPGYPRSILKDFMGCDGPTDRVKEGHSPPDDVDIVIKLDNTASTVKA
Source text: as §1
Recombinant MMP-16 (R&D Systems, 1785-MP) is enzymatically activated in accordance with the manufacturer's instructions using recombinant furin (R&D Systems, 1503-SE). 1 μl of the test compound to be analysed (as a solution in DMSO, suitable concentrations e.g. 1 nM to 30 μM) is pipetted into 24 μl of activated enzyme (final concentration e.g. 1 nM) in reaction buffer (50 mM Tris/HCl pH 7.5, 10 mM CaCl2, 150 mM NaCl, 0.05% Brij®-35) in a white 384-hole microtiter plate (MTP). The enzymatic reaction is started by adding the intramolecularly quenched Mca-Lys-Pro-Leu-Gly-Leu-Dpa(Dnp)-Ala-Arg-NH2 substrate (final concentration e.g. 5 μM; R&D Systems, ES-010), so as to result in a total test volume of 50 μl. The course of the MMP-16 reaction is measured by measuring the fluorescence intensity (excitation 320 nm, emission 410 nm) over a suitable period of time (e.g. over 120 min at a temperature of 32° C.).

MMP-13 = target: T4, MMP-13 (Homo sapiens, UniProt P45452); assay: In vitro MMP-13 inhibition test; conditions: human MMP-13
T4 construct: purchased R&D Systems 511-MP
Source text: as §1
as §2, with “Recombinant MMP-13” for “Recombinant MMP-3”, “Systems, 511-MP)” for “Systems, 513-MP)”, “e.g. 0.1” for “e.g. 2”, “quenched Mca-Pro-Leu-Gly-Leu-Dpa(Dnp)-Ala-Arg-NH2” for “quenched Mca-Arg-Pro-Lys-Pro-Val-Glu-Nval-Trp-Arg-Lys(Dnp)-NH2”, “Systems, ES-001),” for “Systems, ES-002),”, “the MMP-13” for “the MMP-3”

T1 sequence (P08254 100-477): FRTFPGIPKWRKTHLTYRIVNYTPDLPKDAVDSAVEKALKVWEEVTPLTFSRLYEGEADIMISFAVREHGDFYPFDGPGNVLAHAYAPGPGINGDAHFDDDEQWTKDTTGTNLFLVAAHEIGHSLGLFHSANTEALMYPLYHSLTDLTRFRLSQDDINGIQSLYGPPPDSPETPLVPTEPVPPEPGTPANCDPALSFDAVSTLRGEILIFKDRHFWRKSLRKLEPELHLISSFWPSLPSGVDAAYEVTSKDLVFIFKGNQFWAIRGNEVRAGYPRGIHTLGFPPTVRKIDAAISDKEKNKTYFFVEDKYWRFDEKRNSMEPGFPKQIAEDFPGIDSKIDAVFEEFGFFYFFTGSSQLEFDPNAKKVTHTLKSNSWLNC

`CCCCCCOc1ccc2c(C(=O)CC(CCn3nnc4ccccc4c3=O)C(=O)O)coc2c1` (single isomer, unassigned; (+)) [Example 100, (+)-4-[6-(Hexyloxy)-1-benzofur-3-yl]-4-oxo-2-[2-(4-oxo-1,2,3-benzotriazin-3(4H)-yl)ethyl]butanoic acid] showed a pIC50 (MMP-3) of under 4.40, a pIC50 (MMP-1) of under 4.40 and a pIC50 (MMP-16) of under 4.40. It also gave a pIC50 (MMP-13) of 6.85.

With `O=C(CC(CCn1nnc2ccc(C(F)(F)F)cc2c1=O)C(=O)O)c1noc2cc(OCc3ccccc3)ccc12` (racemic) [Example 154, (+/−)-4-[6-(Benzyloxy)-1,2-benzoxazol-3-yl]-4-oxo-2-{2-[4-oxo-6-(trifluoromethyl)-1,2,3-benzotriazin-3(4H)-yl]ethyl}butanoic acid] the pIC50 (MMP-3) was 5.00, the pIC50 (MMP-1) was under 4.40 and the pIC50 (MMP-16) was 4.89. For the same compound, the pIC50 (MMP-13) was 5.64.

For `O=C(CC(CCn1nnc2ccccc2c1=O)C(=O)O)c1coc2cc(OCCC3CCOCC3)ccc12` (racemic) [Example 74, (+/−)-4-Oxo-2-[2-(4-oxo-1,2,3-benzotriazin-3(4H)-yl)ethyl]-4-{6-[2-(tetrahydro-2H-pyran-4-yl)ethoxy]-1-benzofur-3-yl}butanoic acid], the pIC50 (MMP-3) was 4.80, the pIC50 (MMP-1) was under 4.40 and the pIC50 (MMP-16) was 5.19. For the same compound, the pIC50 (MMP-13) was 6.60.

For `O=C(CC(CCn1nnc2ccccc2c1=O)C(=O)O)c1onc2cc(OCc3ccccc3)ccc12` (racemic) [Example 156, (+/−)-4-[6-(Benzyloxy)-2,1-benzoxazol-3-yl]-4-oxo-2-[2-(4-oxo-1,2,3-benzotriazin-3(4H)-yl)ethyl]butanoic acid], the pIC50 (MMP-3) was 4.89, the pIC50 (MMP-1) was under 4.40 and the pIC50 (MMP-16) was 4.42. The pIC50 (MMP-13) was 5.66.

`O=C(CC(CCn1nnc2ccccc2c1=O)C(=O)O)c1cc2cc(OCCCC(F)(F)F)ccc2o1` (single isomer, unassigned; enantiomer 2) [Example 13, (+)-4-Oxo-2-[2-(4-oxo-1,2,3-benzotriazin-3(4H)-yl)ethyl]-4-[5-(4,4,4-trifluorobutoxy)-1-benzofur-2-yl]butanoic acid (enantiomer 2)] gave a pIC50 (MMP-3) of under 4.40, a pIC50 (MMP-1) of under 4.40 and a pIC50 (MMP-16) of under 4.40. It also gave a pIC50 (MMP-13) of 5.34.

`CCCCCCCOc1ccc2cc(C(=O)CC(CCn3nnc4ccccc4c3=O)C(=O)O)oc2c1` (single isomer, unassigned; (+)) [Example 69, (+)-4-[6-(Heptyloxy)-1-benzofur-2-yl]-4-oxo-2-[2-(4-oxo-1,2,3-benzotriazin-3(4H)-yl)ethyl]butanoic acid acid] gave a pIC50 (MMP-3) of 4.44, a pIC50 (MMP-1) of under 4.40 and a pIC50 (MMP-16) of under 4.40. The pIC50 (MMP-13) was 5.44.

With `O=C(CC(CCn1nnc2ccccc2c1=O)C(=O)O)c1noc2cc(OCC3CCCCC3)ccc12` (racemic) [Example 153, (+/−)-4-[6-(Cyclohexylmethoxy)-1,2-benzoxazol-3-yl]-4-oxo-2-[2-(4-oxo-1,2,3-benzotriazin-3(4H)-yl)ethyl]butanoic acid] the pIC50 (MMP-3) was 4.92, the pIC50 (MMP-1) was under 4.40 and the pIC50 (MMP-16) was under 4.40. It also gave a pIC50 (MMP-13) of 5.55.

Compound `O=C(O)[C@H]1[C@H](Cn2nnc3ccc(C(F)(F)F)cc3c2=O)CC[C@@H]1C(=O)c1cc2cc(OCCc3ccccc3)ccc2o1` (racemic) [Example 157, (+/−)-(1RS,2SR,5RS)-2-{[4-Oxo-6-(trifluoromethyl)-1,2,3-benzotriazin-3(4H)-yl]methyl}-5-{[5-(2-phenylethoxy)-1-benzofur-2-yl]carbonyl}cyclopentanecarboxylic acid (racemate)] has a pIC50 (MMP-3) of 5.96, a pIC50 (MMP-1) of under 4.40 and a pIC50 (MMP-16) of 5.31. It also gave a pIC50 (MMP-13) of 6.54.

`CCCCCOc1ccc2c(C(=O)CC(CCn3nnc4ccccc4c3=O)C(=O)O)coc2c1` (racemic) [Example 89, (+/−)-4-Oxo-2-[2-(4-oxo-1,2,3-benzotriazin-3(4H)-yl)ethyl]-4-[6-(pentyloxy)-1-benzofur-3-yl]butanoic acid] gave a pIC50 (MMP-3) of under 4.40, a pIC50 (MMP-1) of under 4.40 and a pIC50 (MMP-16) of under 4.40. The pIC50 (MMP-13) was 6.17.

With `CCCCCCCOc1ccc2oc(C(=O)CC(CCn3nnc4ccccc4c3=O)C(=O)O)cc2c1` (racemic) [Example 31, (+/−)-4-[5-(Heptyloxy)-1-benzofur-2-yl]-4-oxo-2-[2-(4-oxo-1,2,3-benzotriazin-3(4H)-yl)ethyl]butanoic acid] the pIC50 (MMP-3) was under 4.40, the pIC50 (MMP-1) was under 4.40 and the pIC50 (MMP-16) was under 4.40. It also gave a pIC50 (MMP-13) of 5.29.

In the case of `O=C(CC(CCn1nnc2ccccc2c1=O)C(=O)O)c1cc2cc(OCc3ccc(F)cc3)ccc2o1` (single isomer, unassigned; (+)) [Example 23, (+)-4-{5-[(4-Fluorobenzyl)oxy]-1-benzofur-2-yl}-4-oxo-2-[2-(4-oxo-1,2,3-benzotriazin-3(4H)-yl)ethyl]butanoic acid], the pIC50 (MMP-3) was under 4.40, the pIC50 (MMP-1) was under 4.40 and the pIC50 (MMP-16) was 4.52. For the same compound, the pIC50 (MMP-13) was 5.28.

`O=C(CC(CCn1nnc2ccccc2c1=O)C(=O)O)c1cc2cc(OCCc3ccccc3Cl)ccc2o1` (racemic) [Example 1, (+/−)-4-{5-[2-(2-Chlorophenyl)ethoxy]-1-benzofur-2-yl}-4-oxo-2-[2-(4-oxo-1,2,3-benzotriazin-3(4H)-yl)ethyl]butanoic acid] showed a pIC50 (MMP-3) of under 4.40, a pIC50 (MMP-1) of under 4.40 and a pIC50 (MMP-16) of under 4.40. The pIC50 (MMP-13) was under 4.40.

For `O=C(C[C@H](CCn1nnc2ccccc2c1=O)C(=O)O)c1noc2cc(OCC3CCOCC3)ccc12` (single isomer, unassigned; enantiomer 2) [Example 135], the pIC50 (MMP-3) was 4.92, the pIC50 (MMP-1) was under 4.40 and the pIC50 (MMP-16) was 4.44. The pIC50 (MMP-13) was 5.82.

In the case of `O=C(CC(CCn1nnc2ccccc2c1=O)C(=O)O)c1coc2cc(OCC3CCCC3)ccc12` (single isomer, unassigned; (+)) [Example 80, (+)-4-[6-(Cyclopentylmethoxy)-1-benzofur-3-yl]-4-oxo-2-[2-(4-oxo-1,2,3-benzotriazin-3(4H)-yl)ethyl]butanoic acid], the pIC50 (MMP-3) was 5.24, the pIC50 (MMP-1) was under 4.40 and the pIC50 (MMP-16) was 4.68. For the same compound, the pIC50 (MMP-13) was 5.44.

`O=C(CC(CCn1nnc2ccccc2c1=O)C(=O)O)c1cc2cc(OCCCc3ccccc3)ccc2o1` (racemic) [Example 37, (+/−)-4-Oxo-2-[2-(4-oxo-1,2,3-benzotriazin-3(4H)-yl)ethyl]-4-[5-(3-phenylpropoxy)-1-benzofur-2-yl]butanoic acid] was tested, and the pIC50 (MMP-3) was 4.41, the pIC50 (MMP-1) was under 4.40 and the pIC50 (MMP-16) was under 4.40. For the same compound, the pIC50 (MMP-13) was 5.28.
